Tested on: MET receptor / AKT in EHMES-1 cells
Assay: Western blot of MET and AKT phosphorylation with or without PHA665752
Type: cell-based, human
Conditions: PHA665752 100 nM, stimulated by 1 nM HGF or 120 nM aMD5-PEG11, 10 min
Method: EHMES-1 cells were seeded at 9 × 10^5 cells per well in 6-well plates and cultured overnight. To treat the cells with the MET receptor tyrosine kinase inhibitor, EHMES-1 cells were seeded at 3 × 10^5 cells per well in 24-well plates and cultured with or without 100 nM PHA665752 for 12 h. After serum starvation for 4 h, cells were stimulated with HGF or dimeric macrocycle peptide. After washing with ice-cold PBS, cells were lysed in 200 μl 1 × SDS-PAGE Laemmli sample buffer and treated with ultrasonification (Vibra-cell). Cell lysates were analyzed by SDS-PAGE with a 7.5% polyacrylamide gel and electroblotted onto a PVDF membrane. The membrane was treated with primary antibodies (1:1000), followed by HRP-conjugated secondary antibodies (Dako) (1:2000). Chemiluminescence was visualized and quantitated using ImmunoStar LD (Wako). Original blots are provided by supplementary info.

With `Cc1[nH]c(/C=C2\C(=O)Nc3ccc(S(=O)(=O)Cc4c(Cl)cccc4Cl)cc32)c(C)c1C(=O)N1CCC[C@@H]1CN1CCCC1` [PHA665752] the “inhibition of MET receptor and AKT activation” value was “almost completely blocked the activation of the MET receptor and AKT to basal levels”.
